# Results taken from patent publication US7026344B2, “Treating sickle cell disease” (priority 2000, dated 2006).
# “And” between values parts separate entries of the source, which are not always exact repeats. Equal values may be shown once.
# Tests used:
# [1] = system: human γ (Huγ) mRNA in K562 cells; assay: γ globin mRNA induction in K562 cells by RNase protection assay; assay type: cell-based; settings: K562, 48 hours, normalized to GAPD vs untreated
# Experimental: Cell Culture. K562 cells were grown in suspension cultures in RPMI-1640 containing 10% fetal bovine serum, penicillin (100 U/ml) and streptomycin (0.1 mg/ml in a humidified incubator at 37° C. in a 5%CO2/95% air atmosphere. The following experimental conditions were analyzed in triplicate with 2×10^6 cells per well: an untreated control, ZL dissolved in 0.1% dimethylsulfoximide (DMSO) at final concentrations of […], HU at […] and two positive controls hemin (50 mM) and sodium butyrate (NB) 2 mM. The K562 cells were induced for 72 hours then RNA isolated for further analysis. Cell viability was completed by 2% trypan blue exclusion at timnes 0 and 72 hours.
# RNA Isolation. RNA was isolated using RNA Stat-60 (TEL-TEST “B”, Inc., Friendswood, Tex.) according to the manufacturer's instructions. In brief, cell pellets will be suspended in RNA Stat-60 (1 ml) and chloroform (200 μl), and the RNA extracted and precipitated with isopropanol.
# RNase Protection Analysis. MRNA levels will be quantitated by RNase protection assay (RPA) with probes designed to yield protected fragments for human γ (Huγ)and the internal control glyceraldehydes-3-phosphate dehydrogenase (GAPD). Huγ mRNA levels were normalized to that of GAPD and compared to the untreated K562 cells. (Zar: Statistical Analysis, Englewood)
# Several pharmacological hemoglobin F inducers such as HU, 5-azacytidine, erythropoietin, didox, and butyrate alter γ gene expression in culture. The induction of γ gene activity in culture is a good indicator of potential clinical usefulness. Therefore the capability of ZL to induce γ gene activity at the mRNA level was tested. K562 cells were cultured in ZL from 0 to 100 μM or HU (50μ to 100 μM) for 48 hours. Total cellular RNA was analyzed by RPA for γ mRNA levels. An increase in γ mRNA for ZL at 20 μM with a maximal response at 75 μM (FIG. 4A) was observed. The level of γ gene mRNA synthesis was quantitated relative to the internal control, CAPD. […] K562 cell viability was decreased 10% when measured using trypan blue exclusion at 75 μM and 100 μM concentrations for both ZL and HU. The level of γ gene induction was 3.9 fold and 10-fold for the positive controls NB and hemin, respectively.
# [2] = system: fetal hemoglobin production in primary erythroid progenitors from Hb SS patients; assay: Hemoglobin F determination in erythroid progenitors, Hb SS patients; assay type: cell-based, human; settings: for fold increase in hemoglobin F: 0 versus 100 μM, Hb SS patients; for HbF Difference: 0 vs 100 μM, sickle cell patients
# Experimental: BFU-E Colony Growth. Mononuclear cells were isolated from the peripheral blood of each patient studied by density gradient centrifugation using Histapaque-1077 (Sigma). Erythroid progenitors were obtained in methylcellulose culture. ZL was added on day 0 at 25, 50, 75, or 100 μM concentrations for 13–14 days at which time the number of BFU-E colonies were counted on an inverted microscope and harvested for hemoglobin determinations.
# Hemoglobin F determination. The erythroid progenitors were collected, washed in PBS then lysed at room temperature in 200 μl of water. The supernatant was split into two tubes, one for total hemoglobin determination and one for hemoglobin F determination. In brief, IgG (10 μl), 1.2 N NaOH (7 μl) and saturated (NH4)2SO4 (70 μl) were added to the hemoglobin F sample. The denatured hemoglobin was pelleted and the supernatant containing hemoglobin F was mixed with 500 μl of tetramethyl benzidine and 500 μl of H2O2 at room temperature then quantitated on a spectrophotometer at 600 nm. The percentage of fetal hemoglobin to total hemoglobin was determined.
# The capability of ZL to induce hemoglobin F in primary erythroid progenitors, grown from peripheral blood mononuclear cells (MNC) was analyzed. BFU-E colonies were grown in methylcellulose cultures supplemented with erthyopoietin and interleukin-3 and ZL at concentration from 0 to 100 μM. Three patients homozygous for hemoglobin S (Hb SS) were analyzed with triplicate experiments. The average BFU-E colony number was 123.2±18.6 without ZL compared to 10.6±2.0 at 100 μM concentrations, p<0.05 (Table 1). […] All pair-wise comparisons for BFU-E and hemoglobin F between 0μ and other concentrations (25, 50, 75 and 100 μM) were significant at p<0.05. The correlation coefficient between the number of BFU-E colonies or percent hemoglobin F and different levels of ZL is −0.90 and +0.79, respectively (p<0.05). […] (See Yang et al., BFU-E colony growth in response to hydroxyurea: correlation between in vitro and in vivo fetal hemoglobin induction. Am J Hematol. 1997; 56:252–258). […] HU either was more efficient in inhibiting BFU-E colony growth or alternatively the baseline number of colonies on an average was higher for the Hb SS patients in the HU cohort.
Compound,fold increase in γ mRNA ([1]; HU 100 μM) [fold],fold increase in hemoglobin F [2] [fold],HbF Difference [2] [%],fold increase in γ mRNA ([1]; ZL 20 μM) [fold],fold increase in γ mRNA (maximal) ([1]; ZL 75 μM) [fold],"HbF ([2]; zileuton 25 μM, individual Hb SS patients (No. 1-3))","HbF ([2]; zileuton 25 μM, mean ± SEM of three Hb SS patients) [%]","HbF ([2]; zileuton 50 μM, individual Hb SS patients (No. 1-3))","HbF ([2]; zileuton 50 μM, mean ± SEM of three Hb SS patients) [%]","HbF ([2]; zileuton 75 μM, individual Hb SS patients (No. 1-3))","HbF ([2]; zileuton 75 μM, mean ± SEM of three Hb SS patients) [%]","HbF ([2]; zileuton 100 μM, individual Hb SS patients (No. 1-3))","HbF ([2]; zileuton 100 μM, mean of three Hb SS patients)","HbF ([2]; zileuton 100 μM, mean of three Hb SS patients, listed as zileuton) [%]"
"NC(=O)NO [HU, Hydroxyurea]",2.7,3.8,14.4 ± 1.5,,,,,,,,,,,
"CC(c1cc2ccccc2s1)N(O)C(N)=O (racemic) [ZL, (±)-1-(1-Benzo[b]thien-2-ylethyl)-1-hydroxyurea]",,4.8,12.6 ± 1.1,2.6,4.1,3% and 4% and 11%,6.2 ± 1.4,6% and 7% and 14%,11.9 ± 1.3,11% (2×) and 18%,13.2 ± 1.4,13% and 14% and 21%,15.9±1.4% and 15.9%,15.9 ± 1.4
